System: Plasmodium falciparum
Experiment: GSK_TCMDC: Inhibition of Plasmodium falciparum 3D7 in whole erythrocytes, using parasite LDH activity as an index of growth.
Type: functional, organism-based
Conditions: Plasmodium falciparum, 3D7

| SMILES | XC50 |
| --- | --- |
| O=C(/C=C/c1cc([N+](=O)[O-])ccc1Cl)NC1CCC(CN2CCC(c3c[nH]c4ccccc34)CC2)CC1 (stereo not given) | 740 nM |
| CCN(CC)CCc1ccc2c(=O)cc(CCc3cccc(F)c3F)n(CC(=O)N(C)Cc3ccc(-c4ccc(C(F)(F)F)cc4)cc3)c2c1 | 862 nM |
| CCN(CC)CCN(Cc1ccc(-c2ccc(C(F)(F)F)cc2)cc1)C(=O)Cn1c(CCc2ccc(F)c(F)c2)nc(=O)c2ccccc21 | 1580 nM |
| CC(C)(CN1CCCC1)CN(Cc1ccc(-c2ccc(C(F)(F)F)cc2)cc1)C(=O)Cn1c(CCc2cccc(F)c2F)nc(=O)c2ccccc21 | 790 nM |
| CCNc1cc(C(=O)N[C@@H](Cc2ccccc2)[C@H](O)CN[C@@H]2CCc3ccccc32)cc(N2CCCC2=O)c1 | 1020 nM |
| Cc1nc(O)c2c(ccc3ccc(CNc4ccc(C(=O)N[C@@H](CCC(=O)O)C(=O)O)c(F)c4)cc32)n1 | 402 nM |
| O=C(/C=C/c1ccc(Cl)c(Cl)c1)NCCCCCCN1CCCN(C(=O)Nc2ccc(Cl)c(Cl)c2)CC1 | 666 nM |
| Cc1ccc(Nc2ccnc(Nc3ccc4c(c3)CS(=O)(=O)C4)n2)cc1O | 725 nM |
| O=C(Nc1cccnc1)c1ccc(-c2cc3ccncc3cc2OC2CCNCC2)s1 | 884 nM |
| O=C1CCCN1CCCNCc1cccc(-c2ccc(-c3nc4cc(C(F)(F)F)ccc4[nH]3)s2)c1 | 448 nM |
| COc1cc(NC(=O)N2CCOC(CCN3CCC(c4ccccc4)CC3)(c3ccc(Cl)c(Cl)c3)C2)cc(OC)c1 (stereo not given) | 287 nM |
| CCc1cn2c3c(cc(C(=O)N[C@@H](Cc4cccc(Cl)c4)[C@H](O)CNC4CCOCC4)cc13)N(C)S(=O)(=O)CC2 | 44.2 nM |
| COc1ccc(-c2ccc(NC(=O)c3ccc(Cl)cc3)cc2)cc1CN1CCNCC1 | 129 nM |
| CC(C)(C)c1ccc(O)c(CNC2CCCCC2)c1 | 264 nM |
| O=C(OCc1ccccn1)c1nc2ccccc2[nH]1 | 793 nM |
| CCc1c(CCNCCCCCCNCCc2ccc(OC)c(OC)c2CC)ccc(OC)c1OC | 735 nM |
| COc1cc(NC(=O)Nc2cc(C)nc3ccccc23)cc(OC)c1 | 396 nM |
| O=C(/C=C/c1cccs1)NC1CCC(CN2CCC(c3c[nH]c4ccccc34)CC2)CC1 (stereo not given) | 1050 nM |
| O=C(Nc1cccc(CN2CCCN(Cc3ccc(O)cc3)CC2)c1)c1cc2ccccc2o1 | 1200 nM |
| N#Cc1cccc(Nc2ncc3c(-c4cccc(NC(=O)Cc5cccc(Cl)c5)c4)c[nH]c3n2)c1 | 423 nM |
| COc1ccccc1/C=C/C(=O)NC1CCC(CCN2CCc3ccc(-c4cc(C)no4)cc3CC2)CC1 (stereo not given) | 961 nM |
| O=C(N[C@@H](Cc1ccccc1)C(=O)NC1CCCCC1)c1ccc(O)c(-c2ccc(Cl)c(Cl)c2)c1 | 231 nM |
| CC1(C)NC(N)=NC(=N)N1OCCOc1ccc2ccccc2c1 | 3.2 nM |
| CC[C@H]1CN2CC[C@@H]1C[C@H]2[C@H](O)c1cc(-c2c(C)noc2C)nc2ccc(OC)cc12 | 33 nM |

| SMILES | XC50 |
| --- | --- |
| Cc1nc2nc(N)nc(N)c2c(C)c1Cc1c(Cl)cccc1Cl | 48.9 nM |
| Clc1ccc(OCc2ccccc2)c(-c2nc(-c3nc4ccc(Cl)cc4[nH]3)cs2)c1 | 670 nM |
| CN1CCCc2ccc(NC(=O)Nc3ccc(Cl)c(Cl)c3)cc2C1 | 603 nM |
| CC(Oc1ccc(Cl)cc1Cl)c1nc(-c2ccc(NC(=O)c3ccco3)cc2)no1 (stereo not given) | 905 nM |
| N#Cc1ccc(N2CCN(Cc3cccc(-c4ccc(-c5nc6cc(C(F)(F)F)ccc6[nH]5)cc4)c3)CC2)nc1 | 702 nM |
| Cc1cc(N[C@@H](Cc2ccccc2)C(=O)NCc2cccc(F)c2)nc(NCCc2ccc(F)cc2)n1 | 649 nM |
| Nc1nc(O)c2cc(CN(C=O)c3ccc(C(=O)N[C@@H](CCC(=O)O)C(=O)O)cc3)ccc2n1 | 179 nM |
| CC(Oc1ccc(Cl)cc1)C(=O)NCCC1CCN(CCCCCNC(=O)/C=C/c2ccc(Cl)c(Cl)c2)CC1 (stereo not given) | 1020 nM |
| COc1nc(Nc2cccc(C)c2)nc(OC)n1 | 1010 nM |
| CC(=O)Nc1ccc(OCCN(CC(C)C)c2ccc(C(F)(F)F)c(C#N)c2)c(Cl)c1 | 308 nM |
| Cc1ccccc1OCCCON1C(=N)N=C(N)NC1(C)C | 3.2 nM |
| CCC1(c2ccccc2)N=C(N)N(CCCc2ccccc2)C1=O (stereo not given) | 891 nM |
| O=C(Nc1cc(F)c(F)c(-c2cccnc2)c1)N1CCc2cc(Cl)c(Cl)cc21 | 844 nM |
| CC(C)COc1ccc(Cl)cc1Cc1nc(-c2nc3cccc(CN4CCN(C)CC4)c3[nH]2)cs1 | 1330 nM |
| COc1cc(NCCCNC(=O)c2cc3c(Cl)cc(Cl)cc3[nH]2)nc2ccccc12 | 144 nM |
| CCc1ccc(C2CCN(CCCCNC(=O)c3ccc(NC(=O)c4ccc(Cl)cc4)cc3)CC2)cc1 | 646 nM |
| CCc1nc2ccc(C(=O)OC)nc2n1Cc1ccc2oc(-c3ccccc3N)c(Br)c2c1 | 822 nM |
| Clc1ccc(CNc2nc(NCCc3c[nH]cn3)nc(Nc3ccc4c(c3)OCO4)n2)cc1 | 955 nM |
| Cc1ccc(NC(=O)NC2CCN(CCCCCNC(=O)/C=C/c3ccc(Cl)c(Cl)c3)CC2)cc1C | 733 nM |
| COc1cc(NCCCNCC2c3ccccc3Oc3ccccc32)nc2ccccc12 | 331 nM |
| COc1cccc(CC(=O)NC2CCN(c3ccnc4cc(Cl)ccc34)C2)c1 (stereo not given) | 704 nM |
| CCc1cc2c(O)c([N+](=O)[O-])c(=O)oc2cc1OCCCCCOc1cc2oc(=O)c([N+](=O)[O-])c(O)c2cc1CC | 257 nM |
| COc1ccc(-c2ccc(NC(=O)c3ccc(F)cc3)cc2)cc1CN1CCCN(C)CC1 | 663 nM |
| CC1(C)NC(N)=NC(=N)N1OCCSc1ccc(Cl)c(Cl)c1 | 3.2 nM |

| SMILES | XC50 |
| --- | --- |
| O=c1cc(NCCCNCc2ccc(Cl)c(Cl)c2)[nH]c2cc(Cl)ccc12 | 925 nM |
| COc1ccc(C2CC(=O)C3=C(C2)NC(C)=C(C(=O)OC(C)C)C3c2ccccc2F)cc1OC (stereo not given) | 61.6 nM |
| Cc1cc(NCCc2ccccc2)nc(NC(=N)Nc2cccc(F)c2)n1 | 899 nM |
| Fc1cc(Cl)ccc1Nc1ccnc2cc(-c3ccc(CN4CCNCC4)o3)ccc12 | 277 nM |
| CCN1CCN(c2cc(C)c3cc(NC(=O)c4ccc([N+](=O)[O-])c(C)c4)ccc3n2)CC1 | 654 nM |
| COc1ccc(CN2CCC(N3CCc4cc(NC(=O)c5cc(C)on5)ccc43)C2)cc1Cl (stereo not given) | 939 nM |
| COc1ccc(Nc2nccc(NCC(O)c3ccc(C(F)(F)F)cc3)n2)cc1 (stereo not given) | 545 nM |
| COC(=O)Cc1ccc(N)c2ccccc12 | 702 nM |
| COc1ccc2c(NN=Cc3ccccc3)ccnc2c1 | 130 nM |
| Cc1ccc(-c2nnc(Nc3ccc(OCC(N)=O)cc3)c3ccccc23)cc1S(=O)(=O)NCC1CCCO1 (stereo not given) | 753 nM |
| O=C(NCc1cccc(F)c1)c1ccc(O)c(-c2cc(Cl)cc(Cl)c2)c1 | 559 nM |
| COc1ccc2c(OC)cccc2c1CNCCCCCCNCc1c(OC)ccc2c(OC)cccc12 | 686 nM |
| Cc1cc(N[C@@H](Cc2ccccc2)C(=O)NCc2cccs2)nc(NCC2CCCCC2)n1 | 988 nM |
| CC(C)NCc1ccc(-c2ccc(NC(=O)c3ccc(Cl)cc3)cc2)cc1 | 910 nM |
| COC(=O)C(c1ccc(NC(=O)[C@H](CC(C)C)NC(=O)OC(C)(C)C)cc1)c1ccc(NC(=O)[C@H](CC(C)C)NC(=O)OC(C)(C)C)cc1 | 348 nM |
| CC(C)(Cc1ccc(Cl)cc1)NCCCCCCNCCc1ccc(O)c(O)c1 | 1200 nM |
| Fc1cccc2sc(Nc3nc(-c4ccccn4)cs3)nc12 | 906 nM |
| COc1cccc(Nc2nnc(SCC(=O)NNC(=O)c3ccccn3)s2)c1 | 380 nM |
| CCNc1cc(C(=O)N[C@@H](Cc2ccccc2)[C@H](O)CNC(C)(C)Cc2cccc(OC)c2)cc(N2CCCC2=O)c1 | 707 nM |
| CCc1ccc(NC(=O)c2ccc(CN3CCCN(Cc4cccs4)CC3)cc2)cc1 | 827 nM |
| COc1ccc(NC(=O)c2cc(-c3ccc(NC(C)=O)cc3)cnc2N)cc1 | 806 nM |
| COc1cccc(CN2CCC3(CC2)CN(C(=O)Nc2ccc(Cl)c(Cl)c2)C3)c1 | 752 nM |
| CCOC(=O)c1ccc(NC(=O)Nc2cccc(-c3ccc(-c4nc5cc(F)ccc5[nH]4)cc3)c2)cc1 | 94.5 nM |
| Cc1cc(Nc2ncc(Cl)c(Nc3ccccc3C(N)=O)n2)n[nH]1 | 811 nM |

| SMILES | XC50 |
| --- | --- |
| CCCCCN1CCCN(Cc2cccc(NC(=O)c3ccc(Cl)c(Cl)c3)c2)CC1 | 927 nM |
| C=CCOC(=O)O[C@@H]1[C@@H](OC(=O)OCC=C)[C@@H](OC)O[C@H](COC(c2ccccc2)(c2ccccc2)c2ccccc2)[C@H]1OC(=O)OCC=C | 887 nM |
| CCOC(=O)N1NC(=O)N(c2ccccc2)C1(c1ccccc1)c1ccccc1 | 697 nM |
| CCN(Cc1ccccc1)C1CCN(Cc2cc(Br)ccc2O)CC1 | 823 nM |
| CCOc1ccc(C2CCN(CCN3CCC(NC(=O)c4ccc(-c5ccc(C(F)(F)F)cc5)cc4)CC3)CC2)c(OCC2CC2)c1 | 826 nM |
| Brc1ccccc1CNc1ccnc(NCCn2ccnc2)n1 | 900 nM |
| Nc1nc(N)c2cc(C#Cc3ccc(-c4ccccc4)cc3)ccc2n1 | 810 nM |
| NC(=O)c1cccc(Nc2nccc(Nc3ccc4[nH]c(-c5ccccc5)cc4c3)n2)c1 | 776 nM |
| COCCSc1ccc(CC(C)NCC(O)c2cccc(Cl)c2)cc1 (stereo not given) | 758 nM |
| CC(=O)c1ccc2c(c1)CCN(CCC1CCC(NC(=O)c3cc4ccccc4[nH]3)CC1)CC2 (stereo not given) | 982 nM |
| c1ccc(-c2cc(NCCCn3ccnc3)nc(-c3cccnc3)n2)cc1 | 977 nM |
| CN(C(=O)c1cc2c(-c3cncnc3)cccc2[nH]1)c1ccccc1 | 628 nM |
| C=CCOc1ccc(Cc2cnc(N)nc2N)cc1CCC | 1020 nM |
| CN(C(=O)OCc1ccccc1)C1CCC(CCN2CCC3(CC2)C(=O)NCN3c2cccc(C(F)(F)F)c2)(c2ccccc2)CC1 (stereo not given) | 1180 nM |
| Cc1cccc2nc(-c3cccc(-c4ccc(NC(=O)c5cccc(C(N)=O)c5)cc4)c3)[nH]c12 | 410 nM |
| COc1ccc2nccc([C@@H](O)CN3CCC(NCc4ccc5c(n4)NC(=O)CS5)C(F)C3)c2c1 (stereo not given in full) | 912 nM |
| CN1CCC(NCc2cccc(-c3cccc(S(=O)(=O)NCc4ccccc4)c3)c2)CC1 | 749 nM |
| C=C(C)CSc1nc2c(c(=O)n1CCc1ccccc1)C1(CCCC1)Cc1ccccc1-2 | 607 nM |
| Cc1c(Cl)ccc2sc(N3CCN(C(=O)c4ccc([N+](=O)[O-])o4)CC3)nc12 | 745 nM |
| Cc1ccc(Cl)cc1NC(=O)c1c(-c2ccccc2Cl)noc1C | 192 nM |
| O=C(c1ccc(-c2ccc(-c3nc4cc(C(F)(F)F)ccc4[nH]3)s2)cc1)N1CCCCC1CN1CCC(O)C1 (stereo not given) | 560 nM |
| CCc1ccccc1N1CCN(CCCC(=O)c2ccc(NC(=O)c3cc(Cl)cc(Cl)c3)cc2)CC1 | 290 nM |
| CS(=O)(=O)Nc1ccc2[nH]cc(C3CCN(CC4CCN(C(=O)/C=C/c5ccc(Cl)c(Cl)c5)CC4)CC3)c2c1 | 716 nM |
